Results as given in the NIST ThermoML archive (doi:10.1016/j.fluid.2008.02.008).
Numbers after ± are expanded uncertainties.

What was measured:
[1] = 298.15 K, 101.33 kPa, Liquid; for mass density: Pycnometric method; for speed of sound: Sing-around technique in a fixed-path interferometer
[2] = refractive index (Na D-line) (dimensionless); conditions: 298.15 K; 101.33 kPa; Liquid; Standard Abbe refractometry

C1CCCCCCC1 [cyclooctane]
mass density [1]: 830.967 ± 0.82 kg/m3
speed of sound [1]: 1387.8 ± 1.4 m/s
refractive index [2]: 1.45624 ± 0.00075

CCC(C)CC [3-methylpentane]
mass density [1]: 659.806 ± 0.63 kg/m3
speed of sound [1]: 1072.1 ± 1.3 m/s
refractive index [2]: 1.37399 ± 0.00075

CC(C)C(C)C [2,3-dimethylbutane]
mass density [1]: 658.562 ± 1.3 kg/m3
speed of sound [1]: 1047.1 ± 3.1 m/s
refractive index [2]: 1.37275 ± 0.00094

CCCCCCCCCC [decane]
mass density [1]: 726.176 ± 0.7 kg/m3
speed of sound [1]: 1232.5 ± 1.4 m/s
refractive index [2]: 1.4099 ± 0.00075

CCC(C)(C)C [2,2-dimethylbutane]
mass density [1]: 644.43 ± 0.61 kg/m3
speed of sound [1]: 999.69 ± 1.3 m/s
refractive index [2]: 1.36608 ± 0.00075

CC(C)CC(C)(C)C [2,2,4-trimethylpentane]
mass density [1]: 687.817 ± 0.62 kg/m3
speed of sound [1]: 1082.6 ± 1 m/s
refractive index [2]: 1.38917 ± 0.00073

O=C1CCCN1C1CCCCC1 [N-cyclohexylpyrrolidinone]
mass density [1]: 1025.56 ± 1.7 kg/m3
speed of sound [1]: 1555.7 ± 2.3 m/s
refractive index [2]: 1.4975 ± 0.00082

CCCCCC [hexane]
mass density [1]: 654.961 ± 0.62 kg/m3
speed of sound [1]: 1077.6 ± 1.3 m/s
refractive index [2]: 1.37237 ± 0.00075

O [water]
refractive index [2]: 1.3325 ± 0.00075

CCCC(C)C [2-methylpentane]
mass density [1]: 648.614 ± 0.62 kg/m3
speed of sound [1]: 1082.6 ± 1.3 m/s
refractive index [2]: 1.36893 ± 0.00075

CCCCCCCC [octane]
mass density [1]: 698.638 ± 0.63 kg/m3
speed of sound [1]: 1170.4 ± 1.1 m/s
refractive index [2]: 1.39538 ± 0.00073

CN1CCCC1=O [N-methylpyrrolidone]
mass density [1]: 1027.88 ± 1.1 kg/m3
speed of sound [1]: 1545 ± 1.5 m/s
refractive index [2]: 1.46876 ± 0.00075

C1CCCCC1 [cyclohexane]
mass density [1]: 773.948 ± 0.69 kg/m3
speed of sound [1]: 1254.9 ± 0.97 m/s
refractive index [2]: 1.42378 ± 0.00072
